Experimental data as given in paper PMC10870044, “The Interplay Between HIF‐1α and EZH2 in Lung Cancer and Dual‐Targeted Drug Therapy” (Advanced Science, 2023).

Experiments:
[1] = tested on: A549/2‐ME2 and H460/2‐ME2 cells; assay: Epigenetics Compound Library screen in HIF-1 inhibitor-resistant cells; format: cell-based, Human
[2] = tested on: HIF‐1; assay: HIF-1 luciferase reporter gene assay (U251-HRE / U251-PGL3); format: cell-based; conditions: hypoxic environments, compared to the control group
Experimental: HIF‐1 activity was assessed in U251‐HRE and U251‐PGL3 using a 96‐well format. Cells were rinsed twice with ice‐cold PBS, lysed with 200 µl of passive lysis buffer (Promega, Wisconsin, USA), and incubated at room temperature for 10 min. Lysates were centrifuged and stored at −80°C until assayed. Luciferase assays were conducted by pipetting 20 µl of cell lysate into each well of a 96‐well plate and analyzed immediately after adding the luciferase reagent (Promega) in a multi‐mode microplate reader (Centro LB960, Berthold, Germany).

[3] = tested on: A549/DR and H460/DR cells; assay: CCK-8 cytotoxicity, resistance ratio in dual drug-resistant cells; format: cell-based, Human; conditions: A549/DR and H460/DR vs parental
Experimental: Cells (4 × 10^3per well) were seeded into a 96‐well plate and cultured at 37°C in a 5% CO2 incubator. After 24 h, different concentrations of 2‐ME2 were put into wells which ranged from 0.01 to 100 µM with a minimum of three technical replicates. After 72 h, 10 µl CCK‐8 (MCE, NY, USA) was added to each well and incubated for an additional 4 h at 37°C in a 5% CO2 incubator. Then, […]. The optical density values were measured at 450 nm using a microplate reader (Molecular Devices, San Jose, CA, USA).

[4] = tested on: A549/DR cells; assay: Annexin V-FITC/PI apoptosis assay; format: cell-based, Human; conditions: 48 h exposure
Experimental: (§1) After incubation for 48 h, cells were harvested by centrifugation and washed twice in PBS. Then stained the cells according to the FITC Annexin V Apoptosis Detection Kit II (BD Biosciences, USA). Control cells stained with Annexin‐V or PI alone were used to compensate for flow cytometric analysis. Viable cells were those with both Annexin‐V and PI‐double negative staining. Annexin‐V‐positive and PI‐negative cells were defined as early apoptotic cells, and Annexin‐V and PI‐double‐positive cells were defined as late apoptotic cells.

[5] = tested on: H460/DR cells; assay: Annexin V-FITC/PI apoptosis assay; format: cell-based, Human; conditions: 48 h exposure
Experimental: as §1

[6] = tested on: multiple myeloma; parameters: method as in PMID 20499131, PMID 17947482, PMID 16832603, PMID 16197617; conditions: sixty patients with multiple myeloma, phase II study; ref [15], [16], [17], [18]; cited from earlier work
[7] = tested on: HIF‐1α; assay: Western blot of HIF-1α after EZH2 inhibitors; format: cell-based; conditions: compared to the control group

Row | Compound | sensitivity of resistant cells compared to the parental cells [1] | luciferase activity in U251 [2] | resistance ratio (RI) of the IC50 in drug‐resistant cells compared to the IC50 in parental cells [3] | apoptotic cell population [4] | apoptotic cell population [5] | objective response in patients [6] | HIF‐1α protein levels [7]
1 | CCN(c1cc(-c2ccc(CN3CCOCC3)cc2)cc(C(=O)NCc2c(C)cc(C)[nH]c2=O)c1C)C1CCOCC1 [EPZ6438] | more sensitive | promoted luciferase activity | – | – | – | – | –
2 | COc1cc2c(cc1O)CC[C@@H]1[C@@H]2CC[C@]2(C)[C@@H](O)CC[C@@H]12 [2‐ME2, 2‐methoxy estradiol] | – | – | ≈ 4 | much lower | much lower | no objective response | –
3 | CC[C@H](C)n1cc(C)c2c(C(=O)NCc3c(C)cc(C)[nH]c3=O)cc(-c3ccc(N4CCNCC4)nc3)cc21 [GSK126] | more sensitive | promoted luciferase activity | ≈ 4 | much lower | much lower | – | significantly higher levels of HIF‐1α protein
4 | CCN(c1cc(C#CCN2CCOCC2)cc(C(=O)NCc2c(C)cc(C)[nH]c2=O)c1C)[C@H]1CC[C@H](N(C)CCOC)CC1 [EPZ011989] | more sensitive | – | – | – | – | – | –
